This is an account of results in PubChem BioAssay AID623909 (Vanderbilt High Throughput Screening Facility, 2012).

This test addresses G protein-activated inward rectifier potassium channel 2 (Homo sapiens) + G protein-activated inward rectifier potassium channel 1 (Homo sapiens) (UniProt P48051+P48549). The test is described as follows: activation of human GIRK potassium channels – cell-based, thallium flux, HEK-293, GIRK1/2, dose response (AID 623909). Conditions: HEK-293 hGIRK1/2, thallium flux FluoZin-2 fluorescence; for activation, % of glutamate: at 90 µM (top of the series).

The source made the active and inactive calls. No rule for the calls is given here.

G protein-activated inward rectifier potassium channel 2 (Homo sapiens) + G protein-activated inward rectifier potassium channel 1 (Homo sapiens), sequence (P48051 whole entry, looked up): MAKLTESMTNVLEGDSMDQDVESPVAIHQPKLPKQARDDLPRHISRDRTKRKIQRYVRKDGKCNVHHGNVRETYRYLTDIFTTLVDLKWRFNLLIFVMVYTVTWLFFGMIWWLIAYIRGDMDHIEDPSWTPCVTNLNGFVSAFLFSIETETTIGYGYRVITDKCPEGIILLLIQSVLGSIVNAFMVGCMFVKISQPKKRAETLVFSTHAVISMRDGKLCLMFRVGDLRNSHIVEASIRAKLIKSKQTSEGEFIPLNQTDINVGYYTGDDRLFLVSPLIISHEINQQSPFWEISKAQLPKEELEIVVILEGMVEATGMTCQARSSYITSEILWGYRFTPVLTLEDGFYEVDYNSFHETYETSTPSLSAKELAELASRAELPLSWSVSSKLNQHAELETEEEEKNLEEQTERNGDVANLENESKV
G protein-activated inward rectifier potassium channel 2 (Homo sapiens) + G protein-activated inward rectifier potassium channel 1 (Homo sapiens), sequence (P48549 whole entry, looked up): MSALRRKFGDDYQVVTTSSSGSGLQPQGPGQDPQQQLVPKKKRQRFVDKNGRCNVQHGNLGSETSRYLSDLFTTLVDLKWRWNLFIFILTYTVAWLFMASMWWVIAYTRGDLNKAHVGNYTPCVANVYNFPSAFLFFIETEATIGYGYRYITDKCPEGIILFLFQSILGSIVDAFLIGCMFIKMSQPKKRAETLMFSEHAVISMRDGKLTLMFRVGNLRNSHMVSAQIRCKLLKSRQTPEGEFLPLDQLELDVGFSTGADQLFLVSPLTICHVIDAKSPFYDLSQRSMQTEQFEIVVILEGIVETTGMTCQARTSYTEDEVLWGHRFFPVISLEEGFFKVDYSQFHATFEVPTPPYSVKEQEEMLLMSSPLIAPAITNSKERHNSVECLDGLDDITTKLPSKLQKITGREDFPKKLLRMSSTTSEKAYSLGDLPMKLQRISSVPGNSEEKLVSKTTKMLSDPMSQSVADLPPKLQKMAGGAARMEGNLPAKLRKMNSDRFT

Broadly, the EC50 is the concentration needed to bring the measured effect to its halfway point. On to `O=C(Nc1ccc(F)c(F)c1)NC1CCCCC1`, for which the EC50 was 8.55 µM.
As to `Cc1ccc(NC(=O)Cc2ccccc2Cl)cc1S(=O)(=O)N(C)C`, the EC50 is 2.62 µM.
On the same count and under the same terms, in the case of `CSc1ccccc1NC(=O)Nc1ccccc1` it was 12.8 µM.
On to `Cc1cc(C)n(-c2ccc(C(=O)OCC(=O)Nc3ccc(Cl)c(S(=O)(=O)N(C)C)c3)cc2)n1`, for which the EC50 was 8.94 µM.
Turning to `CCCN(CC1CC1)C(=S)Nc1ccc(Oc2ccccc2)cc1`, the EC50 was 3.54 µM.
On to `CCOc1ccc(NC(=O)Nc2cccs2)cc1`, for which the “activation, % of glutamate” value was “inactive”.
On to `O=C(Nc1ccccc1)Nc1nccs1`, for which the EC50 was 30 µM.
In the case of `CCCn1c(C)cc(/C=C(\C#N)C(=O)OCC(=O)Nc2cccc(OC)c2)c1C`, the EC50 is 30 µM.
Take `COc1ccc(C)cc1NC(=O)Nc1ccccc1`: the concentration for a half-maximal effect (EC50) was 5.96 µM.
As to `Cc1ccc(NC(=O)COC(=O)/C=C/c2ccco2)cc1S(=O)(=O)N(C)C`, the EC50 was 30 µM.
On to `COC(=O)[C@H](Cc1ccccc1)NC(=O)NCCC1=CCCCC1`, for which the EC50 was 30 µM.
On the same count and under the same terms, under `CCOc1ccc(OCCSc2nc3ccccc3[nH]2)cc1` stands 1.67 µM.
On the same count and under the same terms, in the case of `S=C(Nc1cccc(Cl)c1)Nc1ccccc1Oc1ccccc1` it was 8.09 µM.
In the case of `CC1CC(C)CN(C(=S)Nc2ccc(SC(F)F)cc2)C1` (configuration not stated), the EC50 is 10.6 µM.
Turning to `Cc1ccc(-c2nnn(CC(=O)NC3CC4CCC3C4)n2)cc1` (configuration not stated), the EC50 is 0.317 µM.
For `CCOC(=O)c1ccc(NC(=O)Nc2ccc(OC)c(OC)c2)cc1`, the EC50 is 5.54 µM.
As to `COc1cccc(NC(=O)Nc2cccs2)c1`, the EC50 is 7.33 µM.
As to `CN(C)S(=O)(=O)c1cccc(NC(=O)Cc2ccc(Cl)cc2)c1`, the EC50 was 9.88 µM.
For `COc1ccc(C2CC(c3ccc(Cl)c(Cl)c3)Nc3nc(N)nn32)cc1` (configuration not stated), the EC50 was 2.41 µM.
With `Cc1ccc(Cl)cc1NC(=S)NCc1cccn1C`, the EC50 was 16.2 µM.
In the case of `CSc1cccc(NC(=O)COc2ccccc2)c1`, the EC50 was 30 µM.
Consider `Fc1ccc(CSc2nc3ccccc3[nH]2)c2ccccc12`, for which the EC50 was 3.6 µM.
In the case of `CC1CCCN(Cc2cccc(Oc3ccccc3)c2)C1` (configuration not stated), the EC50 was 30 µM.
With `COc1ccc(C(=O)NC(=S)NC(C)C)cc1Br`, the EC50 is 2.25 µM.
Take `O=C(Nc1ccc(Cl)cc1)NC1CCCCC1Cc1ccco1` (configuration not stated): the EC50 is 4.14 µM.
Turning to `CCOC(=O)Cc1csc(NC(=O)Nc2ccccc2)n1`, the EC50 was 7.34 µM.
Consider `CSc1cccc(NC(=O)CN(c2ccccc2)S(=O)(=O)N(C)C)c1`, for which the EC50 was 30 µM.
Turning to `Cc1ccc(NC(=O)COC(=O)CCC(=O)c2ccc(Cl)cc2)cc1S(=O)(=O)N(C)C`, the EC50 is 30 µM.
On to `O=C(NNC(=O)c1cccs1)Nc1cccc(Cl)c1`, for which the EC50 was 11.2 µM.
The same measure, in the same setting: in the case of `Cc1nn(CC(=O)Nc2ccc(Cl)c(S(=O)(=O)N(C)C)c2)c(C)c1[N+](=O)[O-]` it was 30 µM; in that of `COc1ccc(NC(=O)Nc2cc(C)ccc2OC)cc1`, 2.05 µM; in that of `CCOC(=O)C(Cc1ccccc1)NC(=O)Cn1nnc(-c2ccccc2)n1` (configuration not stated), 30 µM.
With `O=C(Nc1cccc(Cl)c1)Nc1nccs1`, the EC50 was 1.95 µM.
For the molecule `O=C(Cc1ccccc1)N/N=C/c1cccn1-c1ccc([N+](=O)[O-])cc1`, the EC50 was 1.42 µM.
Still for that read-out and setting: under `Cc1cccc(NC(=O)NC(C)CCc2ccccc2)c1` (configuration not stated) stands 30 µM; under `COc1cccc(NC(=O)CC2COc3ccccc3O2)c1` (configuration not stated), 30 µM.
As for `CCCCc1ccc(NC(=S)Nc2ccc(Cl)c(S(=O)(=O)N(C)C)c2)cc1`, the EC50 was 4 µM.
As for `COc1ccc(C)cc1NC(=O)NCCC1=CCCCC1`, the EC50 was 3.94 µM.
On to `COc1cccc(NC(=O)Cn2cc(C#N)c3ccccc32)c1`, for which the EC50 is 1.65 µM.
As for `CSc1ccccc1NC(=O)Nc1ccc(Cl)cc1`, the “activation, % of glutamate” value is “inactive”.
Regarding `CCSc1nnc(NC(=O)NC(CC)(C(F)(F)F)C(F)(F)F)s1`, the EC50 is 30 µM.
For the molecule `COc1c(Cl)cc(Cl)cc1CNCCNCC(C)O` (configuration not stated), the EC50 is 0.497 µM.
On the same count and under the same terms, under `Cc1ccc(NC(=O)CN2c3cccc4cccc(c34)S2(=O)=O)cc1S(=O)(=O)N1CCOCC1` stands 2.23 µM.
Take `Cc1ccc(CC(=O)N2CCN(c3cccc(C(F)(F)F)c3)CC2)cc1`: the EC50 was 5.18 µM.
For `NC(=O)SCC(=O)Nc1ccc(Cl)cc1`, the EC50 was 4.2 µM.
`COc1ccc(Br)cc1CNC(=O)Nc1cccs1`: the EC50 is 1.75 µM.
On to `O=C(/C=C/c1ccccc1)NC(NC(=S)Nc1cccc(Cl)c1)C(Cl)(Cl)Cl` (configuration not stated), for which the concentration giving a half-maximal response (EC50) was 5.91 µM.
On the same count and under the same terms, under `CC(Sc1nnnn1C)C(=O)Nc1ccc(Oc2ccccc2)cc1` (configuration not stated) stands 30 µM; under `C=C(C)C1CC=C(C)/C(=N/NC(=O)COc2cccc(C)c2)C1` (configuration not stated), 8.94 µM; under `COc1ccccc1Nc1ccc(Nc2ccccc2OC)nn1`, 3.41 µM.
With `CCOC(=O)C1=C(CC)Nc2ccccc2N=C1NC(=O)Nc1ccc(Cl)c(Cl)c1`, the EC50 is 3.62 µM.
`CC(=O)c1sc(NC(=O)c2cc(-c3ccccc3)nn2-c2ccccc2)nc1C`: the EC50 is 0.884 µM.
As to `CCOc1ccccc1Nc1nnc(Cc2ccccc2Cl)c(=O)[nH]1`, the EC50 was 0.67 µM.
For `C/C(CC(=O)NCC(C)C)=N\NC(=O)COc1cc(C)c(Br)cc1Br`, the EC50 was 16.8 µM.
On to `CC(/C=N/NC(=O)c1c(Br)cnn1C)=C\c1ccccc1`, for which the EC50 was 3.54 µM.
On the same count and under the same terms, in the case of `CC(C)=CCC(C)(C)CNC(=O)NC1CCCCC1` it was 30 µM.
As to `CCCSc1nnc(Nc2ccccc2C)s1`, the EC50 was 30 µM.
Consider `Cc1cc(NC(=O)Nc2ccccc2)n(-c2ccccc2)n1`, for which the EC50 is 3.76 µM.
`Cc1ccccc1OCC(=O)N/N=C/c1cccn1C`: the EC50 was 30 µM.
Turning to `CCc1ccc(CNCCNCC(C)O)cc1` (configuration not stated), the EC50 is 2.36 µM.
Turning to `COc1ccc(Nc2nnc(Cc3ccccc3)c(=O)[nH]2)c(OC)c1`, the half-maximal effective concentration (EC50) is 30 µM.
On the same count and under the same terms, under `O=C(Nc1ccc(Cl)cc1)Nc1nccs1` stands 3.65 µM; under `CCOCc1c(C(=O)OCC(=O)Nc2ccc(C)c(S(=O)(=O)N(C)C)c2)oc2ccccc12`, 30 µM; under `CN(C)S(=O)(=O)N(CC(=O)Nc1ccc2ccccc2c1)c1ccccc1`, 7.2 µM.
Same read-out and setting: under `CCCCc1ccc(NC(=S)Nc2cccnc2)cc1` stands 8.96 µM; under `CCOc1ccc(NC(=O)NC23CC4CC(CC(C4)C2)C3)cc1`, 1.48 µM.
Still for that read-out and setting: under `COc1ccc(NC(=O)Nc2ccccc2C(=O)N2CCCC2)cc1` stands 30 µM.
